Results: patent US20200061092A1, “METHODS AND COMPOSITIONS FOR TREATING DISORDERS ASSOCIATED WITH MUSCLE WEAKNESS” (priority 2018, published 2020)

Experiments:
Type in all cases: in vivo, mouse
[1] = test system: F-α-DG (functionally glycosylated α-DG); test: Immunohistochemical staining of F-α-DG with IIH6C4 antibody in muscles of ribitol-treated P448L mice
Method: Ribitol was purchased from Sigma (A5502 Adonitol, ≥98%, Sigma, St. Louis) and dissolved in drinking water to the final concentration of 5% or 10%. […] mice aged at 4 weeks were treated with 5% ribitol drinking water for 1 month and […] mice aged at 7 weeks were treated with 5% ribitol drinking water for 3 months and 6 months. All the mice were randomly assigned to either treatment or control groups. And a minimum number of 4 mice were used for each group. No animal was excluded. […] female breeders were given 10% ribitol in drinking water during pregnancy, and pups continued to be treated with 10% ribitol in drinking water until they were euthanized at 19 weeks of age. Untreated age-matched […] and wild-type C57BL/6 mice were used as controls. The animals were terminated at the end of each treatment time point and tissues including heart, diaphragm, TA, quadriceps, liver, spleen and kidney were collected for analyses. […] For immunohistochemical detection of functionally glycosylated α-DG, […] of thickness cross sections of untreated and C57 control, as well as tissues from treated cohorts were included in each slide. Slides were first fixed in ice cold Ethanol:Acetic acid (1:1) for 1 min, blocked with 10% normal goat serum (NGS) in […]-buffer saline (TBS) for 30 min at room temperature, and incubated overnight at 4° C. with primary mouse monoclonal antibody IIH6C4 (EMD Millipore) (1:500) against α-DG. Negative controls received 10% normal goat serum in 1×TBS only. Sections were washed and incubated with secondary AlexaFLuor 488 goat anti-mouse IgM (Invitrogen) (1:500) at room temperature for 2 hr. […] Immunofluorescence was visualized using an Olympus BX51/BX52 fluorescence microscope (Opelco) and images were captured using the Olympus DP70 digital camera system (Opelco). Slides were examined in a blinded manner by the investigator.

[2] = test system: F-α-DG (functionally glycosylated α-DG); test: Western blot (IIH6C4) quantification and laminin overlay assay of muscle lysates from ribitol-treated P448L mice; details: for F-α-DG by IIH6C4 western blot, % of normal (C57) levels: 6 months (FIG. 3c)
Method: Ribitol was purchased from Sigma (A5502 Adonitol, ≥98%, Sigma, St. Louis) and dissolved in drinking water to the final concentration of 5% or 10%. […] mice aged at 4 weeks were treated with 5% ribitol drinking water for 1 month and […] mice aged at 7 weeks were treated with 5% ribitol drinking water for 3 months and 6 months. All the mice were randomly assigned to either treatment or control groups. And a minimum number of 4 mice were used for each group. No animal was excluded. […] female breeders were given 10% ribitol in drinking water during pregnancy, and pups continued to be treated with 10% ribitol in drinking water until they were euthanized at 19 weeks of age. Untreated age-matched […] and wild-type C57BL/6 mice were used as controls. The animals were terminated at the end of each treatment time point and tissues including heart, diaphragm, TA, quadriceps, liver, spleen and kidney were collected for analyses. For western blot analysis, tissues were homogenized in extraction buffer (50 mM Tris-HCl pH 8.0, 150 mM NaCl, and 1% Triton X-100), supplemented with 1× protease inhibitor cocktail (Sigma-Aldrich). Protein concentration was quantified by Bradford assay (Bio-Rad DC protein assay). Eighty μg of protein was loaded on a 4-15% Bio-Rad Mini-PROTEAN TGX gel (Bio-Rad) and immunoblotted. Amount of total protein loaded for C57 mice was half of the amount loaded for the […] mice. Nitrocellulose membranes (Bio-Rad) were blocked with 5% milk in 1×PBS for 2 hr at room temperature and then incubated with the following primary antibodies overnight at 4° C.: IIH6C4 (1:2000), AF6868 (R&D Systems) (1:1000) and α-actin (Sigma) (1:1000). Appropriate horseradish peroxidase (HRP)-conjugated secondary antibodies were incubated for 2 hr at room temperature. All blots were developed by electrochemiluminescence immunodetection (PerkinElmer). For IIH6C4 band quantification from western blot ImageJ software was used. For laminin overlay assay, nitrocellulose membranes were blocked with laminin overlay buffer (10 mM ethanolamine, 140 mM NaCl, 1 mM MgCl2, and 1 mM CaCl2, pH 7.4) containing 5% nonfat dry milk for 1 hr at 4° C. followed by incubation with laminin from Engelbreth-Holm-Swarm murine sarcoma basement membrane (L2020) (Sigma) at a concentration of 2 μg/ml overnight at 4° C. in laminin overlay buffer. Membranes were then incubated with rabbit anti-laminin antibody (Sigma) (1:1500) followed by goat anti-rabbit HRP-conjugated IgG secondary antibody (Santa Cruz Biotechnology) (1:3000). Blots were saturated with Western-Lightning Plus ECL (Perkin-Elmer) before exposure to and developing of GeneMate auto-radiographic film (VWR).

[3] = test system: FKRP and LARGE transcripts; test: Quantitative real-time PCR of FKRP and LARGE transcripts in muscles of P448L mice; details: 5% ribitol, 3 months (FIG. 11b); cardiac muscle, limb muscle, diaphragm
Method: Tissues were collected from heart, diaphragm and tibialis anterior. RNA was extracted using TRIzol (Invitrogen) following the supplied protocol. Final RNA pellet was re-suspended in 20 μl RNAse-nuclease free water. Final RNA concentration was determined using Nanodrop 2000c. One μg of RNA was subsequently converted to cDNA using the High-Capacity RNA-to-cDNA™ Kit (Applied Biosystems) following the supplied protocol. cDNA was then used for quantitative real-time PCR using the mouse FKRP-FAM (Mm00557870_m1) and LARGE-FAM (Mm00521885 ml) taqman assay with primer limited GAPDH-VIC (Mm99999915_g1) as the internal control and TaqMan® Universal Master Mix II, with UNG (Life Technologies). […] Results of FKRP and LARGE transcript were calculated and expressed as 2^-ΔΔCt and compared across tissues and animals.

OC[C@@H](O)[C@@H](O)[C@@H](O)CO [ribitol]
F-α-DG signal by IIH6C4 immunohistochemistry ([1]; 5% ribitol in drinking water, 1 month, 4-week-old P448L mice, heart, diaphragm, limb muscles): visibly increased F-α-DG | F-α-DG levels by IIH6C4 immunofluorescence ([1]; 5% ribitol in drinking water, 3 and 6 months, from 7 weeks of age, all muscles): clear increase in the levels of F-α-DG | Expression of F-α-DG by immunohistochemistry ([1]; 10% ribitol in drinking water from pregnancy to 19 weeks of age): detected in all skeletal muscles and in the cardiac muscle | Functionality of glycosylated α-DG by laminin overlay assay ([2]; 5% ribitol, 6 months): supported by laminin overlay assay | F-α-DG by IIH6C4 western blot, % of normal (C57) levels ([2]; 5% ribitol, cardiac muscle): up to 14% | F-α-DG by IIH6C4 western blot, % of normal (C57) levels ([2]; 5% ribitol, diaphragm): ≤ 17% | Functionality of glycosylated α-DG by laminin overlay assay ([2]; 10% ribitol from pregnancy to 19 weeks): supported by laminin overlay assay | F-α-DG by IIH6C4 western blot, % of normal levels ([2]; 10% ribitol from pregnancy to 19 weeks, diaphragm): 18% | F-α-DG by IIH6C4 western blot, % of normal levels ([2]; 10% ribitol from pregnancy to 19 weeks, heart): 14% | F-α-DG by IIH6C4 western blot, % of normal levels ([2]; 10% ribitol from pregnancy to 19 weeks, limb muscle): 26% | FKRP and LARGE transcript levels, treated vs untreated [3]: No statistically significant difference
